Consider one molecule from patent US20250092383A1, “COMPOUNDS AND METHODS FOR FBXO22-MEDIATED PROTEIN DEGRADATION” (Northwestern University, priority 2023, published 2025).

What all share (type): cell-based
Test [1] deals with T1, FKBP12 interactome (SKP1-CUL1-RBX1 E3 complex) (Homo sapiens, UniProt P62942+Q8NEZ5).
T1 construct: expressed in transfected cells; host or cells: HEK293T (FLAG-FKBP12 and HA-FBXO22 expressed; SKP1, CUL1 and RBX1 are the cells' own)
Put plainly: FKBP12-directed enrichment proteomic analysis. The settings on record: 22-SLF (2 μM) and MG132 (5 μM). The text has this: (§1) FIGS. 4A-4C show 22-SLF induces the formation of a ternary complex involving 22-SLF, FKBP12 and FBXO22. […] The bar graph represents quantification of the immunoprecipitated HA-FBXO22 protein content compared to the HA-FBXO22 protein in whole cell lysates (WCL). Data are presented as the mean values (n=2 biological independent samples). […] Data are presented as the mean values (n=2 biological independent samples).
(§2) To comprehensively assess the impact of 22-SLF on the FKBP12 interactome landscape, an enrichment proteomic approach was employed to identify proteins co-immunoprecipitating with FLAG-FKBP12 from HEK293T cells treated with 22-SLF. […] Furthermore, another enrichment proteomic study was conducted comparing FKBP12 interactome landscape in HEK293T cells expressing FBXO22 wildtype and C227AC228A double mutant. […] Collectively, these findings indicate that 22-SLF effectively drives the formation of a ternary complex involving 22-SLF, FBXO22 and FKBP12 by engaging C227/228 in FBXO22, thereby facilitating the subsequent degradation of FKBP12.

Test [2] concerns the target T2, FKBP12 interactome (SKP1-CUL1-RBX1 E3 complex) (Homo sapiens, UniProt P62942+Q8NEZ5, C227A/C228A).
T2 construct: expressed in transfected cells; host or cells: HEK293T (FLAG-FKBP12 and HA-FBXO22 expressed; SKP1, CUL1 and RBX1 are the cells' own)
Put plainly: FKBP12-directed enrichment proteomic analysis. To be noted: 22-SLF (2 μM) and MG132 (5 μM).
From the text: as §1, §2

Test [3] deals with T3, FKBP12-EGFP (Homo sapiens, UniProt P62942).
T3 construct: expressed in transfected cells
Put plainly: Fluorescence quantification of FKBP12-EGFP levels in HEK293T cells. To be noted: HEK293T CRISPR activation cells with FBXO22-activating sgRNAs; 2 μM, 24 hours. The method, then:
FIGS. 1A-1E show an E3 ligase focused CRISPR-Cas9 transcriptional activation screen identifies FBXO22 that supports 22-SLF-induced reduction in FKBP12-EGFP expression levels. FIG. 1A is a schematic representation of the steps in the CRISPR-Cas9 transcriptional activation screen. […] FIG. 1C is a volcano plot showing the E3 ligase focused CRISPR-Cas9 transcriptional activation screen for FKBP12-EGFP degradation after treatment of 2 μM 22-SLF in HEK293T CRISPR-Cas9 transcriptional activation cells for 24 hours. […] The statistical significance was evaluated through unpaired two-tailed Student's t-tests, comparing cells transduced with FBXO22 sgRNA to control sgRNA. Statistical significance denoted ****P<0.0001. […] The statistical significance was evaluated through unpaired two-tailed Student's t-tests, comparing cells treated with 22-SLF to DMSO. Statistical significance denoted as ***P<0.001 and ns: not significant.
FIGS. 6A-6E show generation of CRISPR-Cas9 transcriptional activation cells for the discovery of E3 ligases supporting the degradation of FKBP12-EGFP. […] The statistical significance was evaluated through unpaired two-tailed Student's t-tests, comparing cells treated with Len-SLF or SLF to DMSO. […] The statistical significance was evaluated through unpaired two-tailed Student's t-tests, comparing cells transduced with IL-1β sgRNA to control sgRNA. […]

Test [4] concerns the target T4, CUTA (Homo sapiens, UniProt O60888).
T4 construct: endogenous in cells; host or cells: A549 parental and FBXO22 knockout
T4 sequence (O60888 33-179): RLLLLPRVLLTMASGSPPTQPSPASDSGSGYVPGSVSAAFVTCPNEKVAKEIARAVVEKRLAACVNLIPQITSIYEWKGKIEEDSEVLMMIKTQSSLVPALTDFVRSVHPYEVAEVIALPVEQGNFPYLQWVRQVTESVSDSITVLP
Put plainly: MS-based global proteomic analysis in A549 parental and FBXO22 knockout cells (CUTA). The settings on record: 2 μM, 24 hours. The text has this:
As an F-box protein, FBXO22 is a pivotal player in the context of tumor progression. FBXO22 has many oncogenic functions, including propelling the ubiquitination and subsequent degradation of a diverse spectrum of substrates, such as histone lysine demethylase 4 subfamily KDM4A/B, methylated p53, p21, PTEN, KLF4, and LKB1. […] To establish the role of endogenous FBXO22 in facilitating 22-SLF-induced FKBP12 degradation, FBXO22 knockout was used in a panel of cancer cell lines, including A549 (lung cancer), MDA-MB-231 (breast cancer), and PC3 (prostate cancer). The efficacy of FBXO22 knockout was verified through both genomic PCR and global proteomic analysis (FIG. 8b,c). […] Furthermore, mass spectrometry (MS)-based global proteomic analysis was conducted on A549 parental and FBXO22 knockout cells, following the treatment with 2 μM 22-SLF for 24 hours. […] To further substantiate the engagement of FBXO22 by the electrophilic portion of 22-SLF, a biotin-conjugated probe known as 22-biotin (FIG. 2f) was synthesized. This probe was then immobilized onto streptavidin-coated beads, which were subsequently subjected to interaction with lysates from HEK293T cells expressing HA-tagged FBXO22.

T1 sequence (P62942 2-108): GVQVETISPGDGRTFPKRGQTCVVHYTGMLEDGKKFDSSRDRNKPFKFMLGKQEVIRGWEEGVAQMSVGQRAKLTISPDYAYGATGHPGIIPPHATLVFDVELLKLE
T1 sequence (Q8NEZ5 whole entry): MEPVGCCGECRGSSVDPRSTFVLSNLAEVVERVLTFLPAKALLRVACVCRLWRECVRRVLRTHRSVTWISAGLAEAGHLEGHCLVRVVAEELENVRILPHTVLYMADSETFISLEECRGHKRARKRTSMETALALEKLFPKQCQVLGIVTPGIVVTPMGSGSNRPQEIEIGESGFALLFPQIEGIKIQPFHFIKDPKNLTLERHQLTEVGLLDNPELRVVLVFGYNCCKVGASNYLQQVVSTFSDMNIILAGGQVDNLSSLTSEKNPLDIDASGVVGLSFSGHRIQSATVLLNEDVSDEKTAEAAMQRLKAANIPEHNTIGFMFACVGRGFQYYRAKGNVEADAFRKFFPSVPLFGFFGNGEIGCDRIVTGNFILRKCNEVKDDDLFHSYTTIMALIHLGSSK
T1 sequence (P63208 whole entry partner): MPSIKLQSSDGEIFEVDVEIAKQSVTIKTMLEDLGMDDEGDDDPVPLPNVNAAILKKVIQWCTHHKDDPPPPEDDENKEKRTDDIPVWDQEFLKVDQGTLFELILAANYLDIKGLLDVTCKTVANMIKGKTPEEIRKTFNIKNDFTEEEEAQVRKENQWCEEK
T3 sequence (P62942 whole entry): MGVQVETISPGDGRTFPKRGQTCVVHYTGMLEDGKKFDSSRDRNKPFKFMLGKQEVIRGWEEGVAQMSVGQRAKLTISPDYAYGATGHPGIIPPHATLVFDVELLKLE
T2 sequence (P62942 2-108): as the sequence (P62942 2-108) above
T2 sequence (Q8NEZ5 whole entry C227A/C228A): as the sequence (Q8NEZ5 whole entry) above, with C227A, C228A counted along it
T2 sequence (P63208 whole entry partner): as the sequence (P63208 whole entry partner) above

As to `CCC(C)(C)C(=O)C(=O)N1CCCC[C@H]1C(=O)O[C@H](CCc1ccc(OC)c(OC)c1)c1cccc(OCC(=O)NCCCOCCOCCOCCCN(C(=O)CCl)C(C(=O)NCc2ccccc2)c2nc3ccccc3s2)c1` (some centres unmarked) [22-SLF], the “FBXO22 complex enrichment, FBXO22 wildtype-expressing cells” value in test [1] was “enrichment of the FBXO22 complex”. Besides, the “Proteins co-immunoprecipitating with FLAG-FKBP12” value in test [1] (HEK293T cells) is “FBXO22 itself, SKP1, CUL1, and NEDD8, as proteins recruited by 22-SLF”. The “FBXO22 complex enrichment, FBXO22 C227AC228A-expressing cells” value in test [2] is given as “enrichment was absent”. The “FKBP12-EGFP expression in FBXO22-activated cells” value in test [3] is on record as “loss of FKBP12-EGFP expression”. Also, the “CUTA protein reduction in global proteomics” value in test [4] is “observed to undergo reduction upon 22-SLF treatment in A549 parental cells, but not in the FBXO22 knockout setting”.
